Experimental data as given in patent US6602914B2, “Compounds and methods for the inhibition of the expression of VCAM-1” (AtheroGenics, Inc., priority 1997, dated 2003).

What was measured:
[1] = tested on: VCAM-1; assay: VCAM-1 Assay: TNF-stimulated cells, cell-surface ELISA; format: cell-based; settings: for IC50: bare number = IC50, NE not defined in the patent, read-out: VCAM-1 IC50 or % inhibition at [μM]: IC50
Description: Two to four confluent P150 plates are trypsinized and the cells transferred to a 50 mL conical centrifuge tube. The cells are pelleted, resuspended, and counted using the trypan blue exclusion method.
Cells are resuspended at a concentration of 36,000 cells/mL and 1 mL is aliquoted per well.
Cells are split into 24 well tissue culture plates. The cells in each well should be approximately 90-95% confluent by the following day. Cells should not be older than passage 8.
Compounds are initially screened at 50 μM and 10 μM. A 50 mM stock solution for each compound is prepared in culture medium. The stock solution is diluted to 5 mM and 1 mM. When 10 μL of the 5 mM solution is added to the well (1 mL medium/well), the final concentration will be 50 μM. Adding 10 μL of the 1 mM solution to the well will give a final concentration of 10 μM.
Compounds which will not go into solution in culture medium are resuspended in DMSO at a concentration of 25 mM. The stock solution is then diluted to the final concentration in culture medium. The old medium is aspirated and 1 mL of the new medium with the compound is added. For example, if the final concentration is 50 μM, the 2 μL of the 25 mM stock is added per mL of culture medium. The […] solution is diluted for lower concentrations.
The compounds are added to the plate (each compound is done in duplicate). One plate is done for VCAM expression and one plate is done for ICAM expression.
Immediately after the compounds are added, TNF is added to each well. 100 units/mL TNF is usually added to each well. Since each lot of TNF varies in the number of units, each new lot is titrated to determine the optimum concentration. Therefore this concentration will change. If 100 units/mL is bing used, dilute the TNF to 10 units/μL and add 10 μL to each well.
The plates are incubated at 37° C., 5% CO2 overnight (approximately 16 hours). The next day the plates are checked under the microscope to see if there are any visual signs of toxicity. Records are made of any cell death, debris, or morphology changes, as well as insoluble compounds (particulate or turbity).
In order to assess MCP-1, the media (500 μL) is saved and frozen at −70° C. Wash cells once with roughly 1 ml/well of Hanks Balance Salt Solution (HBSS) or PBS. Gently empty the wash solution and then tap the plate onto paper towels. Add either 250 μL/well of HBSS +5% FCCS to the plank (no primary antibody wells) or 250 μL/well of primary antibody diluted in HBSS +5% FCS. Incubate for 30 minutes at 37° C. Wash the wells twice with 0.5 mL/well HBSS or PBS and gently tap the plates onto paper towels after the last wash. Add 250 μL/well of HRP-conjugated second antibody diluted in HBSS +5% FCS to every well including the blank wells (no primary antibody). Incubate at 37° C. for 30 minutes. Wash the wells four times with 0.5 mL/well HBSS or PBS and gently tap the plates onto paper towels after the last wash. Add 250 μL/well of substrate solution. Incubate at room temperature in the dark until there is adequate color development (blue). Note the length of time incubation was performed (typically 15-30 minutes). Add 75 μL/well stopper solution (8N sulfuric acid), and read A450 nm.

[2] = tested on: ApoB/HepG2; assay: Lipid Screen & IC50 Determination Protocol: ApoB ELISA of HEPG2 media; format: cell-based, human; settings: HEPG2, 24 hours; for IC50: bare number = IC50, NE not defined in the patent, read-out: ApoB/HepG2 IC50 or % inhibition at [μM]: IC50; for ApoB/HepG2 % inhibition at [μM]: at 15 μM
Description: HEPG2 cell was started in 10 ml of MEM, 10% FBS, 1 mM Sodium Pyruvate. The cells were incubated in a tissue culture incubator. The cells were split into 4×96-wells plate in MEM, 10% FBS, 1 mM Sodium Pyruvate and allowed to grow to about 50% confluency and then removed.
The cells were treated with the desired concentration of compounds in 100 μl DMEM, 1% RSA for 24 hours. The compounds are dissolved in DMSO.
On the same day, 4×96-wells NuncImmunoSorb plate is coated with 100 μl of mouse anti-human ApoB monoclonal 1D1 (1:1000 dilution in 1×PBS, pH 7.4). The coating is allowed overnight.
The coated plate is washed 3 times with 1×PBS, pH 7.4, −0.05% Tween 20. 100 μl of the standards is added to the selected wells. ApoB standards are prepared at 6.25, 3.12, 1.56, 0.78, 0.39 ng, and each concentration is done in triplicates. For samples:
90 μl of 1×PBS, pH 7.4, −0.05% Tween 20 is added to each well corresponding to the sample. 10 μl of media is transferred from the treated HEPG2 plates to the ApoB ELISA plate. The plate is incubated at room temperature for 2 hours, rocking gently.
Wash the coated plate 3× with 1×PBS, pH 7.4, −0.05% Tween 20. Add 100 μl of sheep anti-human ApoB polyclonal from Boehringer Mannheim. (1:2000 dilution in 1×PBS, pH 7.4, −0.05% Tween 20) from Boehringer Mannheim. Incubate at room temperature for 1 hour, rocking gently. Wash the coated plate 3× with 1×PBS, pH 7.4, −0.05% Tween 20. Add 100 μl of rabbit anti-sheep IgG (1:2000 dilution in 1×PBS, pH 7.4, −0.05% Tween 20). Incubate at room temperature for 1 hour, rocking gently. Wash the coated plate 3× with 1×PBS, pH 7.4, −0.05% Tween 20. Add 100 μl of substrate (10 ml of distilled water, 100 μl of TMB (10 mg/ml), and 1 μl of hydrogen peroxide). Allow color to emerge and stop reaction with 25 ul of 8N sulfuric acid. Wells are read with MicroPlate Reader @ […]. Graph accumulation of ApoB in media as a percentage of control for each sample and their concentration. A determination of IC50 is obtained from the graph.
The degree of inhibition of the compounds of formulas (I) and (II) was determined by the assays described in Examples 62-64.

Compound	IC50 [1]	IC50 [2]	ApoB/HepG2 % inhibition at [μM] [2]	VCAM-1 % inhibition at [μM] ([1]; at 50 μM)
CC(C)(C)c1cc(S(=O)(=O)Cc2ccc([N+](=O)[O-])cc2)cc(C(C)(C)C)c1O [2,6-di-tert-butyl4-(sulfonyl-(4′-nitrobenzyl))phenol]	40 µM	25 µM	–	–
CC(C)(C)c1cc(SCc2ccc([N+](=O)[O-])cc2[N+](=O)[O-])cc(C(C)(C)C)c1O [2,6-di-tert-butyl4-thio(2′,4′-dinitrobenzyl)phenol]	8 µM	32 µM	–	–
CC(C)(C)c1cc(SCc2ccc([N+](=O)[O-])cc2)cc(C(C)(C)C)c1O [2,6-di-tert-butyl4-thio(4′-nitrobenzyl)phenol]	10 µM	27 µM	–	–
CC(C)(C)c1cc(SCc2cccc([N+](=O)[O-])c2)cc(C(C)(C)C)c1O [2,6-di-tert-butyl-4-thio(3′-nitrobenzyl)phenol]	13 µM	20 µM	–	–
CC(C)(C)c1cc(SCc2ccc(CC(=O)O)cc2)cc(C(C)(C)C)c1O [2,6-di-tert-butyl-4-thio(4′(methyl)phenylacetic acid))phenol]	80 µM	–	7% at 15	–
CC(C)(C)c1cc(SCc2ccc(CCO)cc2)cc(C(C)(C)C)c1O [2,6-di-tert-butyl-4-thio(4′-(methyl)phenylethyl alcohol))phenol]	15 µM	–	53% at 15	–
CC(=O)Oc1ccc(CSc2cc(C(C)(C)C)c(O)c(C(C)(C)C)c2)cc1 [2,6-di-tert-butyl-4-thio(4′-acetoxybenzyl)phenol]	18 µM	40 µM	–	–
CC(C)(C)c1cc(SCc2ccc(F)cc2)cc(C(C)(C)C)c1O [2,6-di-tert-butyl-4-thio(4′-fluorobenzyl)phenol]	35 µM	30 µM	–	–
CN(C)S(=O)(=O)c1ccc(CSc2cc(C(C)(C)C)c(O)c(C(C)(C)C)c2)cc1 [2,6-di-tert-butyl-4-thio(4′-methyl-N,N-dimethylbenzenesulfonamide)phenol]	20 µM	31 µM	–	–
Cc1ccc(CSc2cc(C(C)(C)C)c(O)c(C(C)(C)C)c2)cc1 [2,6-di-tert-butyl-4-thio(4′-methylbenzyl)phenol]	75 µM	22 µM	–	–
CN(C)Cc1ccc(CSc2cc(C(C)(C)C)c(O)c(C(C)(C)C)c2)o1 [2,6-di-tert-butyl-4-thio(5′-methyl-2′-((dimethylamino)methyl)furan)phenol]	10 µM	19 µM	–	–
CC(C)(C)c1cc(SCc2ccc(C(F)(F)F)cc2)cc(C(C)(C)C)c1O [(2,6-di-tert-butyl4-thio(4′-(trifluoromethyl)benzyl)phenol]	5 µM	16 µM	–	–
CC(C)(Sc1cc(C(C)(C)C)c(O)c(C(C)(C)C)c1)Sc1cc(C(C)(C)C)c(OC(=O)CCC(=O)O)c(C(C)(C)C)c1 [Butanedioic acid, mono [4-[[1-[[3,5-bis(1,1-dimethylethyl)-4-hydroxyphenyl]thio]-1-methylethyl]thio]2,6-bis(1,1-dimethylethyl)phenyl]ester]	5.6 µM	–	65% at 15	–
CC(C)(Sc1cc(C(C)(C)C)c(O)c(C(C)(C)C)c1)Sc1cc(C(C)(C)C)c(OC(=O)CCCC(=O)O)c(C(C)(C)C)c1 [Pentanedioic acid, mono[4-[[1-[[3,5-bis(1,1-dimethylethyl)-4-hydroxyphenyl]thio]-1-methylethyl]thio]-2,6-bis(1,1-dimethylethyl)phenyl] ester]	8.7 µM	–	70% at 15	–
CC(C)(Sc1cc(C(C)(C)C)c(O)c(C(C)(C)C)c1)Sc1cc(C(C)(C)C)c(OCc2ccc([N+](=O)[O-])cc2)c(C(C)(C)C)c1 [Phenol, 4-[[1-[3,5-bis(1,1-dimethylethyl)-4-[(4-nitrophenyl)methoxy]phenyl]thio]-1-methylethyl]thio]2,6-bis(1,1-dimethylethyl)-]	–	–	17% at 15	30% at 50
